IC50 data for 29 compounds are collected here from patent US8343963B2, “Sulfamoyl-phenyl-ureido compounds and their use as medicament” (4SC AG, priority 2009, dated 2013).

Bounds are passed on as bounds.

What is called IC50 is the concentration that inhibits the measured activity by half.

In the test the test system is multiresistant Dd2 strain of Plasmodium falciparum. As to the kind of experiment: Antiplasmodial activity against Dd2 strain of Plasmodium falciparum ([8-3H]hypoxanthine incorporation). It is filed as cell-based. Particulars: 66 h, P. falciparum Dd2, 48 h + 18 h with [8-3H]hypoxanthine, 50% parasite growth inhibition, read-out: Antiplasmodia activity (IC50 class). As to the method:
For the determination of the antiplasmodial activity of the compounds described above, the multiresistant Dd2 strain of Plasmodium falciparum was used. The incorporation of [8-^3H]hypoxanthine into the parasitic nucleic acids was measured. The plasmodia were incubated at 0.3% parasitaemia and an erythrocyte haematocrit of 2.5% in the presence of different concentrations of the compounds in a final volume of 200 μl. The medium employed was RPMI 1640 which contained 10% of heat-treated human serum and 3 mg/l of gentamycin. In the incubations, the concentrations of the compounds varied from 0.001 to 100 μM. After 48 h, each batch was treated with 50 μl of [8-^3H]hypoxanthine (1 mCi/ml) and incubated for a further 18 h. The cells were filtered off, washed and suspended in 20 μl of scintillation fluid. The radioactive hypoxanthine absorbed by the parasites was then quantified using a scintillation counter. The results were presented graphically and the IC50 value was determined using a fitting function. The value IC50, the ‘inhibition constant’, indicates the value in μMol/l at which 50% parasite growth inhibition occurs (R. E. Desjardins, et al., Antimicrobiol. Agent Chemother. 16, pp. 710-718, 1979; J. D. Chulay, et al., Exp. Parasitol. 55, pp. 138-146, 1983).
`N=C(c1cccc(NC(=O)Nc2ccc(S(=O)(=O)Nc3ccc(S(N)(=O)=O)cc3)cc2)c1)N1CCOCC1` [Compound 25, 4-(3-(3-(imino(morpholino)methyl)phenyl)ureido)-N-(4-sulfamoylphenyl)benzenesulfonamide]: the 50% inhibitory concentration (IC50) was ≥ 1000 nM. In the case of `N=C(c1cccc(NC(=O)Nc2ccc(S(=O)(=O)c3ccc(Br)cc3)cc2)c1)N1CCC(C(N)=O)CC1` [Compound 16, 1-((3-(3-(4-(4-bromophenylsulfonyl)phenyl)ureido)phenyl)(imino)methyl)piperidine-4-carboxamide] it was 20 to 200 nM.

On to `CCCCC(=O)N1CCN(C(=N)c2cccc(NC(=O)Nc3ccc(S(=O)(=O)NCc4ccc(S(N)(=O)=O)cc4)cc3)c2)CC1` [Compound 59, 4-(3-(3-(imino(4-pentanoylpiperazin-1-yl)methyl)phenyl)ureido)-N-(4-sulfamoylbenzyl)benzenesulfonamide], for which the IC50 lay within 20 to 200 nM.

For `N=C(c1cccc(NC(=O)Nc2ccc(S(=O)(=O)c3ccc(Br)cc3)cc2)c1)N1CCSCC1` [Compound 14, 1-(4-(4-bromophenylsulfonyl)phenyl)-3-(3-(imino(thiomorpholino)methyl)phenyl)urea], the IC50 lay in the range of 20 to 200 nM. The result for `CCCCN1CCN(C(=N)c2cccc(NC(=O)Nc3ccc(S(=O)(=O)N(CCO)CCO)cc3)c2)CC1` [Compound 20, 4-(3-(3-((4-butylpiperazin-1-yl)(imino)methyl)phenyl)ureido)-N,N-bis(2-hydroxyethyl)benzenesulfonamide] reads ≥ 1000 nM; that for `N=C(c1cccc(NC(=O)Nc2ccc(S(=O)(=O)c3ccc(Br)cc3)cc2)c1)N1CCC(O)CC1` [Compound 5, 1-(4-(4-bromophenylsulfonyl)phenyl)-3-(3-((4-hydroxypiperidin-1-yl)(imino)methyl)phenyl)urea], 20 to 200 nM; that for `COCCN(CCOC)C(=N)c1cccc(NC(=O)Nc2ccc(S(=O)(=O)NCc3ccc(S(N)(=O)=O)cc3)cc2)c1` [Compound 32, N,N-bis(2-methoxyethyl)-3-(3-(4-(N-(4-sulfamoylbenzyl)sulfamoyl)phenyl)ureido)benzimidamide], 210 to 990 nM. In the case of `CN1CCN(C(=N)c2cccc(NC(=O)Nc3ccc(S(=O)(=O)Nc4ccc(S(N)(=O)=O)cc4)cc3)c2)CC1` [Compound 26, 4-(3-(3-(imino(4-methylpiperazin-1-yl)methyl)phenyl)ureido)-N-(4-sulfamoylphenyl)benzenesulfonamide] it was ≥ 1000 nM. Turning to `CCOC(=O)N1CCN(C(=N)c2cccc(NC(=O)Nc3ccc(S(=O)(=O)NCc4ccc(S(N)(=O)=O)cc4)cc3)c2)CC1` [Compound 61, ethyl 4-(imino(3-(3-(4-(N-(4-sulfamoylbenzyl)sulfamoyl)phenyl)ureido)phenyl)methyl)piperazine-1-carboxylate], the 50% inhibitory concentration (IC50) was < 20 nM. The result for `N=C(c1cccc(NC(=O)Nc2ccc(S(=O)(=O)c3ccc(N)cc3)cc2)c1)N1CCC(O)CC1` [Compound 17, 1-(4-(4-aminophenylsulfonyl)phenyl)-3-(3-((4-hydroxypiperidin-1-yl)(imino)methyl)phenyl)urea] reads ≥ 1000 nM. The result for `CCCCN1CCN(C(=N)c2cccc(NC(=O)Nc3ccc(S(=O)(=O)Nc4ccnc5cc(Cl)ccc45)cc3)c2)CC1` [Compound 22, 4-(3-(3-((4-butylpiperazin-1-yl)(imino)methyl)phenyl)ureido)-N-(7-chloroquinolin-4-yl)benzenesulfonamide] reads ≥ 1000 nM; that for `CCN(CCO)C(=N)c1cccc(NC(=O)Nc2ccc(S(=O)(=O)NCc3ccc(S(N)(=O)=O)cc3)cc2)c1` [Compound 30, N-ethyl-N-(2-hydroxyethyl)-3-(3-(4-(N-(4-sulfamoylbenzyl)sulfamoyl)phenyl)ureido)benzimidamide], 210 to 990 nM.

On to `CN(C)C1CCN(C(=N)c2cccc(NC(=O)Nc3ccc(S(=O)(=O)NCc4ccc(S(N)(=O)=O)cc4)cc3)c2)C1` (centres unmarked) [Compound 49, 4-(3-(3-((3-(dimethylamino)pyrrolidin-1-yl)(imino)methyl)phenyl)ureido)-N-(4-sulfamoylbenzyl)benzenesulfonamide], for which the half-inhibitory concentration (IC50) lay in the range of 20 to 200 nM. The result for `CC(C)(C)OC(=O)N1CCN(C(=N)c2cccc(NC(=O)Nc3ccc(S(=O)(=O)NCc4ccc(S(N)(=O)=O)cc4)cc3)c2)CC1` [Compound 51, tert-butyl 4-(imino(3-(3-(4-(N-(4-sulfamoylbenzyl)sulfamoyl)phenyl)ureido)phenyl)methyl)piperazine-1-carboxylate] reads 210 to 990 nM; that for `N=C(c1cccc(NC(=O)Nc2ccc(S(=O)(=O)NCc3ccc(S(N)(=O)=O)cc3)cc2)c1)N1CCN(CCO)CC1` [Compound 28, 4-(3-(3-((4-(2-hydroxyethyl)piperazin-1-yl)(imino)methyl)phenyl)ureido)-N-(4-sulfamoylbenzyl)benzenesulfonamide], 20 to 200 nM; that for `N=C(c1cccc(NC(=O)Nc2ccc(S(=O)(=O)c3ccc([N+](=O)[O-])cc3)cc2)c1)N1CCSC1` [Compound 9, 1-(3-(imino(thiazolidin-3-yl)methyl)phenyl)-3-(4-(4-nitrophenylsulfonyl)phenyl)urea], ≥ 1000 nM. In the case of `CCCCN1CCN(C(=N)c2cccc(NC(=O)Nc3ccc(S(=O)(=O)c4ccc(Br)cc4)cc3)c2)CC1` [Compound 4, 1-(4-(4-bromophenylsulfonyl)phenyl)-3-(3-((4-butylpiperazin-1-yl)(imino)methyl)phenyl)urea] it was 210 to 990 nM.

For the compound `N=C(c1cccc(NC(=O)Nc2ccc(S(=O)(=O)NCc3ccc(S(N)(=O)=O)cc3)cc2)c1)N1CCSCC1` [Compound 31, 4-(3-(3-(imino(thiomorpholino)methyl)phenyl)ureido)-N-(4-sulfamoylbenzyl)benzenesulfonamide], the IC50 lay within 210 to 990 nM. `CC(=O)N1CCN(C(=N)c2cccc(NC(=O)Nc3ccc(S(=O)(=O)NCc4ccc(S(N)(=O)=O)cc4)cc3)c2)CC1` [Compound 57, 4-(3-(3-((4-acetylpiperazin-1-yl)(imino)methyl)phenyl)ureido)-N-(4-sulfamoylbenzyl)benzenesulfonamide]: the IC50 was in the range of 20 to 200 nM.

On to `CCCCN1CCN(C(=N)c2ccc(NC(=O)Nc3ccc(S(=O)(=O)NCc4ccc(S(N)(=O)=O)cc4)cc3)cc2)CC1` [Compound 71, 4-(3-(4-((4-butylpiperazin-1-yl)(imino)methyl)phenyl)ureido)-N-(4-sulfamoylbenzyl)benzene sulfonamide], for which the IC50 fell in the range of 20 to 200 nM. In the case of `N=C(c1cccc(NC(=O)Nc2ccc(S(=O)(=O)c3ccc(Br)cc3)cc2)c1)N1CCCC1` [Compound 15, 1-(4-(4-bromophenylsulfonyl)phenyl)-3-(3-(imino(pyrrolidin-1-yl)methyl)phenyl)urea] it was 20 to 200 nM. For `N=C(c1cccc(NC(=O)Nc2ccc(S(=O)(=O)NCc3ccc(S(N)(=O)=O)cc3)cc2)c1)N1CCN(CC2CCCO2)CC1` (centres unmarked) [Compound 68, 4-(3-(3-(imino(4-((tetrahydrofuran-2-yl)methyl)piperazin-1-yl)methyl)phenyl)ureido)-N-(4-sulfamoylbenzyl)benzene sulfonamide], the IC50 lay in the range of 20 to 200 nM. For the compound `CCCCCCCN1CCN(C(=N)c2cccc(NC(=O)Nc3ccc(S(=O)(=O)NCc4ccc(S(N)(=O)=O)cc4)cc3)c2)CC1` [Compound 56, 4-(3-(3-((4-heptylpiperazin-1-yl)(imino)methyl)phenyl)ureido)-N-(4-sulfamoylbenzyl)benzenesulfonamide], the IC50 was 20 to 200 nM. The result for `CCCCCN1CCN(C(=N)c2cccc(NC(=O)Nc3ccc(S(=O)(=O)NCc4ccc(S(N)(=O)=O)cc4)cc3)c2)CC1` [Compound 55, 4-(3-(3-(imino(4-pentylpiperazin-1-yl)methyl)phenyl)ureido)-N-(4-sulfamoylbenzyl)benzenesulfonamide] reads < 20 nM; that for `N=C(c1cccc(NC(=O)Nc2ccc(S(=O)(=O)c3ccc([N+](=O)[O-])cc3)cc2)c1)N1CCC(O)CC1` [Compound 10, 1-(3-((4-hydroxypiperidin-1-yl)(imino)methyl)phenyl)-3-(4-(4-nitrophenylsulfonyl)phenyl)urea], 20 to 200 nM. The result for `C=CCN1CCN(C(=N)c2cccc(NC(=O)Nc3ccc(S(=O)(=O)NCc4ccc(S(N)(=O)=O)cc4)cc3)c2)CC1` [Compound 39, 4-(3-(3-((4-allylpiperazin-1-yl)(imino)methyl)phenyl)ureido)-N-(4-sulfamoylbenzyl)benzenesulfonamide] reads < 20 nM; that for `N=C(c1cccc(NC(=O)Nc2ccc(S(=O)(=O)c3ccc(Cl)cc3)cc2)c1)N1CCC(O)CC1` [Compound 11, 1-(4-(4-chlorophenylsulfonyl)phenyl)-3-(3-((4-hydroxypiperidin-1-yl)(imino)methyl)phenyl)urea], 20 to 200 nM. The result for `CCCCN1CCN(C(=N)c2cccc(NC(=O)Nc3ccc(S(=O)(=O)NNc4ccc(S(N)(=O)=O)cc4)cc3)c2)CC1` [Compound 40, 4-(2-(4-(3-(3-((4-butylpiperazin-1-yl)(imino)methyl)phenyl)ureido)phenylsulfonyl)hydrazinyl)benzenesulfonamide] reads ≥ 1000 nM; that for `CCCCN1CCN(C(=N)c2cccc(NC(=O)Nc3ccc(S(=O)(=O)NC(C)c4ccc(S(N)(=O)=O)cc4)cc3)c2)CC1` (centres unmarked) [Compound 42, 4-(3-(3-((4-butylpiperazin-1-yl)(imino)methyl)phenyl)ureido)-N-(1-(4-sulfamoylphenyl)ethyl)benzenesulfonamide], 210 to 990 nM.
